Laboratory results reported in patent publication US20060122432A1, “Aryl piperidine derivatives and use thereof to reduce elevated levels of ldl-cholesterol” (priority 2002, published 2006).
Where a name gives a salt, the structure may show the parent alone.

Experiments:
LDL-r promoter = LDL-r promoter luciferase reporter assay in HepG2 cells; format: cell-based; conditions: Homo sapiens; HepG2 cells stably transfected with LDL-r promoter-luciferase construct, 24 hours incubation, 2% lipoprotein-deficient serum; read-out: EC50 induction of luciferase activity
Experimental: HepG2 cells, stably transfected with a construct comprising the LDL-r promoter and the luciferase reporter gene, were seeded at 50.000 cells/well in 96 well plates. After 1 day, cells were incubated with compounds for 24 hours in RPMI medium containing 2% of lipoprotein-deficient serum. Compounds were tested from […]. Cell lysates were prepared and the luciferase activity was measured by the luciferase assay system (Promega). Induction of luciferase activity was calculated taking untreated cells as control. The ED50 of each compounds was determined compared to the ED50 of an internal standard.

For `Cc1nc(-c2ccc(C#N)cc2)sc1C(=O)NCCCCN1CCC(c2ccc3c(c2OCCO)CCCC3)CC1` (as salt: hydrochloride) [Example 7, 2-(4-Cyano-phenyl)-4-methyl-thiazole-5-carboxylic acid (4-{4-[1-(2-hydroxy-ethoxy)-5,6,7,8-tetrahydro-naphthalen-2-yl]-piperidin-1-yl}-butyl)-amide, hydrochloride], the melting point was 188 °C.

In the case of `O=C(NCCCCN1CCC(c2ccc3c(c2OCCO)CCCC3)CC1)c1sc(-c2ccc(C(F)(F)F)cc2)nc1CO` [Example 3, 4-Hydroxymethyl-2-(4-trifluoromethyl-phenyl)-thiazole-5-carboxylic acid (4-{4-[1-(2-hydroxy-ethoxy)-5,6,7,8-tetrahydro-naphthalen-2-yl]-piperidin-1-yl}-butyl)-amide], the melting point is reported as 157 to 159 °C.

In the case of `Cc1nc(-c2ccc(Cl)cc2Cl)sc1C(=O)NCCCCN1CCC(c2ccc3c(c2OCCO)CCCC3)CC1` [Example 8, 2-(2,4-dichloro-phenyl)-4-methyl-thiazole-5-carboxylic acid (4-{4-[1-(2-hydroxy-ethoxy)-5,6,7,8-tetrahydro-naphthalen-2-yl]-piperidin-1-yl}-butyl)-amide], the EC50 (LDL-r promoter) is reported as 13 nM.

With `CS(=O)(=O)Nc1ccc(-c2ccc(C(=O)NCCCCN3CCC(c4ccc5c(c4OCCO)CCCC5)CC3)cc2)cc1` [Example 12, 4′-Methanesulfonylamino-biphenyl-4-carboxylic acid (4-{4-[1-(2-hydroxy-ethoxy)-5,6,7,8-tetrahydro-naphthalen-2-yl]-piperidin-1-yl}-butyl)-amide] the EC50 (LDL-r promoter) was 5 nM and the melting point was 216 °C.
